pIC50: −log10 of the molar value.
How the values were obtained:
Format in all cases: cell-based, human
MCF 10A cells = assay: Cell proliferation (MTT) of non-transformed breast epithelial cells; conditions: for concentration at which effect on MCF 10A cell number reached significance: 48 hr, p < 0.05; for pIC50: Homo sapiens, MCF-10A, 72 hr, read-out: IC50 for the parental MCF 10A cells
Experimental: (§1) Cell proliferation was assessed using an MTT [3-(4,5-dimethylthiazol-2-yl)-2,5-diphenyltetrazolium bromide] assay (Roche, Mannheim, Germany). The number of viable cells growing in a single well on a 96-well microtiter plate was estimated by adding 10 μl of MTT solution (5 mg/ml in phosphate-buffered saline [PBS]). After 4 h of incubation at 37°C, the stain was diluted with 100 μl of dimethyl sulfoxide. The optical densities were quantified at a test wavelength of 570 nm and a reference wavelength of 690 nm on a multiwell spectrophotometer. In some assays, MTS was used as substrate (Promega, Madison, WI), and the absorbance of the product was monitored at 490 nm. Cell enumeration was carried out using a hemocytometer, and viable cells identified by trypan blue exclusion.
(§2) Figure 5 Effects of PKCδ inhibitors on growth and spheroid formation in non-transformed and transformed human breast epithelial cells. MCF 10A cells and cells from the derived tumorigenic line MCF 10C (also called M3), were grown to 80% confluence in 96-well plates and then exposed to rottlerin at concentrations ranging from 1 to 20 μM (A) or to BJE6-106 at concentrations ranging from 0.1 to 20 μM (B). The corresponding equivalent volume of solvent (DMSO) was used as a vehicle control (Vehicle). After 24, 48 and 72 hr of exposure, cell mass was evaluated by MTT assay. Control (vehicle) values were normalized to 100%. Error bars represent SEM. p values for comparison between vehicle and PKCδ inhibitors on MCF 10A cell number only reached significance (p < 0.05) at 48 hr at 20 μM for rottlerin, and at 1 μM for BJE6-106. In contrast, significant effects of the inhibitors on the MCF 10C cells were observed as early as 24 hr for rottlerin (at 5 μM) and for BJE6-106 (at 0.1 μM). (C) MCF 10A and MCF 10C cells were plated at 10,000 cells per well in tumor spheroid media, and spheroid formation was assessed at days 10 and 21. Representative photographs are shown. (D) MCF 10C cells were plated at 10,000 cells per well in tumor spheroid media, in the presence of rottlerin (5 μM), or BJE6-106 (1 μM or 5 μM), or DMSO vehicle (Control). Tumor spheroids were enumerated at 10 days. Representative photographs are shown. (E) Spheroid numbers were normalized to the number of spheroids in the control cultures (assigned an arbitrary value of 100%) and plotted. Error bars represent SEM. p values for comparison between vehicle and rottlerin or BJE6-106 effects on spheroid number were significant (p < 0.001).

MCF 10C cells = assay: Cell proliferation (MTT) of transformed breast epithelial cells; conditions: for pIC50: Homo sapiens, Epithelial cell, 72 hr, read-out: IC50 for the MCF 10C derivative; for concentration with significant effect on MCF 10C cells: as early as 24 hr
Experimental: as §1, §2

PCSC cells = assay: Cytotoxicity (LDH release) in pancreatic cancer stem cells
Experimental: LDH release was assessed by spectrophotometrically measuring the oxidation of NADH in both the cells and media. Cells were seeded in 24-well plates, and exposed to PKCδ inhibitors or vehicle. After different times of exposure, cytotoxicity was quantified by a standard measurement of LDH release with the use of the LDH assay kit (Roche Molecular Biochemicals) according to the manufacturer’s protocol. Briefly, total culture medium was cleared by centrifugation. For assay of released LDH, supernatants were collected. To assess total LDH in cells, Triton X-100 was added to vehicle (control) wells to release intracellular LDH. LDH assay reagent was added to lysates or supernatants and incubated for up to 30 min at room temperature in dark, the reaction was stopped, and the absorbance was measured at 490 nm. The percentage of LDH release was then calculated as the LDH in the supernatants as a fraction of the total LDH.
Figure 2 Effects of PKCδ inhibitors on human cancer stem cells. (A) PCSC and PrCSC cells at 80% confluence were exposed to rottlerin. DMSO served as vehicle control (Vehicle). After 24 and 72 hr of exposure, cell mass was evaluated by MTT assay. Control values were normalized to 100%. p values for comparison between treatments reached significance at 24 hr of exposure (p≤0.01) for both cell types, and remained significant at 72 hr. (B) PCSC and PrCSC cells at 50% confluence were exposed to rottlerin. Cytotoxicity was evaluated by LDH-release assay. Total maximal LDH release was assigned the arbitrary value of 100% (Control). p values for comparison between effects of treatments on LDH release reached significance at 24 hr of exposure (p<0.01) for both cell types, and remained significant at 72 hr. (C) Effects of PKCδ inhibitor on tumor cell clonogenic capacity. PCSC were exposed to vehicle or rottlerin (10 μM) for 6, 18, 24, or 48 hr. Viable cells were enumerated and re-plated in media without inhibitor, and colony numbers were quantitated 15 days later. p values for comparison of treatment effects on clonogenic capacity reached significance (p=0.005) at 18 hr of exposure and remained significant for all subsequent exposure times. The insert is a photograph of stained colonies on plates. (D) Structures of staurosporine, rottlerin, second-generation (KAM1) and third-generation (BJE6-106) derivatives. (E) PCSC and PrCSC cells at 50% confluence were exposed to KAM1 at the indicated concentrations. DMSO served as vehicle control (Vehicle). Cytotoxicity was evaluated by LDH-release assay, as in panel B. p values for comparison between treatment effects on LDH release reached significance at 24 hr of exposure to 2.5 μM KAM1 for PCSC cells and at 10 μM for PrCSC (p≤0.01), and remained significant at 72 hr for all concentrations of KAM1. Error bars represent SEM.

MiaPaCa2 = assay: Tumor spheroid growth, MiaPaCa2 pancreatic cancer; conditions: p < 0.001

SMILES | concentration at which effect on MCF 10A cell number reached significance (MCF 10A cells) [µM] | pIC50 (MCF 10A cells) | pIC50 (MCF 10C cells) | concentration with significant effect on MCF 10C cells (MCF 10C cells) [µM] | increase in potency compared to rottlerin, LDH release (PCSC cells; data not shown) | inhibition of tumor spheroid growth, MiaPaCa2 (MiaPaCa2; BJE6-106 at 0.5-1.0 μM) [%] | cytotoxicity in PCSC (LDH release) (PCSC cells; dose-dependent, 24 and 72 hr) | inhibition at 10 µM (MiaPaCa2; Homo sapiens, MIA PaCa-2, rottlerin at 10 μM) [%]
CC1(C)C=Cc2cc(CCn3c4ccccc4c4ccccc43)cc(C=O)c2O1 [BJE6-106, 6-(2-(9H-carbazol-9-yl)ethyl)-2,2-dimethyl-2H-chromene-8-carbaldehyde] | 1 | < 4.70 | ~7.00 | 0.1 | greater than 10 fold | > 97 | – | –
CC(=O)c1c(O)c(C)c(O)c(Cc2c(O)c3c(c(C(=O)/C=C/c4ccccc4)c2O)OC(C)(C)C=C3)c1O [rottlerin, Rottlerin, reference compound] | 20 | < 4.70 | ~6.00 | 5 | – | – | induced cytotoxicity | > 97
